{"source": "patent US11524938B2", "about": "“Aromatic sulfonamide derivatives” (Bayer Pharma Aktiengesellschaft, priority 2016, dated 2022)", "biological_target": "T1, human P2X4 (Homo sapiens, UniProt Q99571)", "T1 sequence (Q99571 1-388)": "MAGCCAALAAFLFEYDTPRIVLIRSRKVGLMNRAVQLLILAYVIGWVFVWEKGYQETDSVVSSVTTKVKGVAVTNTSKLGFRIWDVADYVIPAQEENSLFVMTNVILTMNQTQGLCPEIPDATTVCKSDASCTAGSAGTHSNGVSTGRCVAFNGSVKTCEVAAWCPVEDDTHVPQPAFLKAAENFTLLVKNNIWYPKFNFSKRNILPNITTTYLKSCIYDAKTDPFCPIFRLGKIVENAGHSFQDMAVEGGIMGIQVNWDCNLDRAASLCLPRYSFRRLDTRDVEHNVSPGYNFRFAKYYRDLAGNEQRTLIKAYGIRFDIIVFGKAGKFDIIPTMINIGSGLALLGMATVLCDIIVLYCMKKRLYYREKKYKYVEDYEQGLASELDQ", "experiment": "Human P2X4 HEK Cell FLIPR Assay", "type": "cell-based", "conditions": "agonist Bz-ATP at EC80; for Emax: HEK293, HEK293 cells, percentage of maximal inhibition, read-out: Human P2X4 HEK Cells (FLIPR Assay) avg Efficacy [%]; for IC50: HEK293 cells, individual values listed where some fall outside detection range", "how_it_was_run": "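HEK293 cells stably expressing human P2X4, Fluo8-AM loaded 30 min at 37° C, then compound 30 min at room temperature (0.5% DMSO, pH 7.4 buffer with 1.8 mM CaCl2). Bz-ATP at its daily-determined EC80 added; calcium fluorescence read over 120 sec; IC50 from peak RFU normalized to agonist control, triplicates.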", "data": [{"smiles": "NS(=O)(=O)c1cc(NC(=O)Cc2ccc(Cl)cc2Cl)ccc1-n1cc(C(F)(F)F)nn1", "note": "[Example 417, 2-(2,4-Dichlorophenyl)-N-{3-sulfamoyl-4-[4-(trifluoromethyl)-1H-1,2,3-triazol-1-yl]phenyl}acetamide]", "values": [{"measurement": "Emax", "value": 68, "unit": "%"}, {"measurement": "IC50", "value": 0.051, "unit": "µM"}]}, {"smiles": "NS(=O)(=O)c1cc(NC(=O)Cc2ccccc2Cl)ccc1-c1cncs1", "note": "[Example 418, 2-(2-Chlorophenyl)-N-[3-sulfamoyl-4-(1,3-thiazol-5-yl)phenyl]acetamide]", "values": [{"measurement": "Emax", "value": 91, "unit": "%"}, {"measurement": "IC50", "value": 0.015, "unit": "µM"}]}, {"smiles": "NS(=O)(=O)c1cc(NC(=O)Cc2ccccc2Cl)ccc1-c1ccsn1", "note": "[Example 419, 2-(2-Chlorophenyl)-N-[3-sulfamoyl-4-(1,2-thiazol-3-yl)phenyl]acetamide]", "values": [{"measurement": "Emax", "value": 89, "unit": "%"}, {"measurement": "IC50", "value": 0.274, "unit": "µM"}]}, {"smiles": "Cc1nc(-c2ccc(NC(=O)Cc3ccccc3Cl)cc2S(N)(=O)=O)cs1", "note": "[Example 420, 2-(2-Chlorophenyl)-N-[4-(2-methyl-1,3-thiazol-4-yl)-3-sulfamoylphenyl]acetamide]", "values": [{"measurement": "Emax", "value": 75, "unit": "%"}, {"measurement": "IC50", "value": 0.069, "unit": "µM"}]}, {"smiles": "COc1nc(-c2ccc(NC(=O)Cc3ccccc3Cl)cc2S(N)(=O)=O)cs1", "note": "[Example 421, 2-(2-Chlorophenyl)-N-[4-(2-methoxy-1,3-thiazol-4-yl)-3-sulfamoylphenyl]acetamide]", "values": [{"measurement": "Emax", "value": 86, "unit": "%"}, {"measurement": "IC50", "value": 0.68, "unit": "µM"}]}, {"smiles": "COc1ncc(-c2ccc(NC(=O)Cc3ccccc3Cl)cc2S(N)(=O)=O)s1", "note": "[Example 422, 2-(2-Chlorophenyl)-N-[4-(2-methoxy-1,3-thiazol-5-yl)-3-sulfamoylphenyl]acetamide]", "values": [{"measurement": "Emax", "value": 90, "unit": "%"}, {"measurement": "IC50", "value": 0.046, "unit": "µM"}]}, {"smiles": "Cc1ncc(-c2ccc(NC(=O)Cc3ccccc3Cl)cc2S(N)(=O)=O)s1", "note": "[Example 423, 2-(2-Chlorophenyl)-N-[4-(2-methyl-1,3-thiazol-5-yl)-3-sulfamoylphenyl]acetamide]", "values": [{"measurement": "Emax", "value": 86, "unit": "%"}, {"measurement": "IC50", "value": 0.053, "unit": "µM"}]}, {"smiles": "Cc1cc(-c2ccc(NC(=O)Cc3ccccc3Cl)cc2S(N)(=O)=O)sn1", "note": "[Example 424, 2-(2-Chlorophenyl)-N-[4-(3-methyl-1,2-thiazol-5-yl)-3-sulfamoylphenyl]acetamide]", "values": [{"measurement": "Emax", "value": 88, "unit": "%"}, {"measurement": "IC50", "value": 0.029, "unit": "µM"}]}, {"smiles": "Cc1csc(-c2ccc(NC(=O)Cc3ccccc3Cl)cc2S(N)(=O)=O)n1", "note": "[Example 425, 2-(2-Chlorophenyl)-N-[4-(4-methyl-1,3-thiazol-2-yl)-3-sulfamoylphenyl]acetamide]", "values": [{"measurement": "Emax", "value": 74, "unit": "%"}, {"measurement": "IC50", "value": 0.05, "unit": "µM"}]}, {"smiles": "NS(=O)(=O)c1cc(NC(=O)Cc2ccccc2Cl)ccc1-c1cnsc1", "note": "[Example 426, 2-(2-Chlorophenyl)-N-[3-sulfamoyl-4-(1,2-thiazol-4-yl)phenyl]acetamide]", "values": [{"measurement": "Emax", "value": 86, "unit": "%"}, {"measurement": "IC50", "value": 0.024, "unit": "µM"}]}, {"smiles": "NS(=O)(=O)c1cc(NC(=O)Cc2ccccc2Cl)ccc1-c1nccs1", "note": "[Example 427, 2-(2-Chlorophenyl)-N-[3-sulfamoyl-4-(1,3-thiazol-2-yl)phenyl]acetamide]", "values": [{"measurement": "Emax", "value": 65, "unit": "%"}, {"measurement": "IC50", "value": 0.072, "unit": "µM"}]}, {"smiles": "N#Cc1csc(-c2ccc(NC(=O)Cc3ccccc3Cl)cc2S(N)(=O)=O)n1", "note": "[Example 428, 2-(2-Chlorophenyl)-N-[4-(4-cyano-1,3-thiazol-2-yl)-3-sulfamoylphenyl]acetamide]", "values": [{"measurement": "Emax", "value": 57, "unit": "%"}, {"measurement": "IC50", "value": 0.027, "unit": "µM"}]}, {"smiles": "NS(=O)(=O)c1cc(NC(=O)Cc2ccccc2Cl)ccc1-c1cnc(C(F)F)s1", "note": "[Example 429, 2-(2-Chlorophenyl)-N-{4-[2-(difluoromethyl)-1,3-thiazol-5-yl]-3-sulfamoylphenyl}acetamide]", "values": [{"measurement": "Emax", "value": 91, "unit": "%"}, {"measurement": "IC50", "value": 0.108, "unit": "µM"}]}, {"smiles": "NS(=O)(=O)c1cc(NC(=O)Cc2ccccc2Cl)ccc1-c1cnc(C2CC2)s1", "note": "[Example 430, 2-(2-Chlorophenyl)-N-[4-(2-cyclopropyl-1,3-thiazol-5-yl)-3-sulfamoylphenyl]acetamide]", "values": [{"measurement": "Emax", "value": 87, "unit": "%"}, {"measurement": "IC50", "value": 0.086, "unit": "µM"}]}, {"smiles": "NS(=O)(=O)c1cc(NC(=O)Cc2ccccc2Cl)ccc1-c1csc(C2CC2)n1", "note": "[Example 431, 2-(2-Chlorophenyl)-N-[4-(2-cyclopropyl-1,3-thiazol-4-yl)-3-sulfamoylphenyl]acetamide]", "values": [{"measurement": "Emax", "value": 83, "unit": "%"}, {"measurement": "IC50", "value": 2.88, "unit": "µM"}]}]}
